Reference: publication PMC10830684, “Effect of Oregon grape root extracts on P-glycoprotein mediated transport in in vitro cell lines” (Journal of Pharmacy & Pharmaceutical Sciences, 2024)

Tests used:
P-glycoprotein = P-glycoprotein (Homo sapiens, UniProt P08183); experiment: Effect on 3H-CsA and 3H-digoxin transport in Caco-2 cells; details: for Papp (B to A) of 3H-CsA / Papp (B to A) of 3H-digoxin: Caco-2; for Papp (B to A) of 3H-CsA: 0.5 µM 3H-CsA
Caco-2 cells = experiment: MTT cytotoxicity assay in Caco-2 cells; format: cell-based, human; details: for MTT assay: 4 hours exposure
Source text: (§1) We initiated cytotoxicity experiments with the Caco-2, MDCKII-MDR1 and MDCKII-wild type cells on Day 7 (Caco-2) and Day 4 (MDCKII-MDR1 and MDCKII-wild type) after the initial plating of the cells at 2.5 × 10^3 cells/well in 48-well plates (Becton Dickinson, Franklin Lakes, NJ, USA). See details of preparation for the cytotoxicity experiments in Supplementary Material.
We initiated cytotoxicity experiments with the Caco-2, MDCKII-MDR1 and MDCKII-wild type cells on Day 7 (Caco-2) and Day 4 (MDCKII-MDR1 and MDCKII-wild type) after the initial plating of the cells at 2.5x10^3 cells/well in 48-well plates (Becton Dickinson, Franklin Lakes, NJ, USA). Stock solutions of 10 mM berberine or berbamine were prepared by dissolving the compounds in DMSO (berberine) or distilled water (berbamine).
(§2) The LDH enzymatic activities were assayed using the method of Mitchell et al.(1). […] Enzyme leakage into the medium was expressed as the percentage of total cellular LDH. The MTT (3-(4,5-dimethythiazole-2yl)-2,5-diphenyl tetrazolium bromide) reduction assay was done according to Mosmann (2). This assay was conducted immediately with the same cells used in the LDH study. The results were expressed as the percentage of negative controls.

[1] = parameters: method as in PMID 16086103; details: renal-transplant patients; co-administration of 200 mg berberine three times a day for 12 days; cited from earlier work
[2] = molecular target: P-glycoprotein (MDCKII-MDR1 cells) (Homo sapiens, UniProt P08183); experiment: Effect on 3H-CsA and 3H-digoxin transport in MDCKII-MDR1 cells; details: for Papp (B to A) of 3H-CsA: 0.5 µM 3H-CsA; for Papp (B to A) of 3H-digoxin: 0.5 µM 3H-digoxin
MDCKII wild-type cells = experiment: MTT cytotoxicity assay in MDCKII wild-type cells; format: cell-based, Canine; details: MDCKII-WT cells, 4 hours exposure
Source text: as §1
We initiated cytotoxicity experiments with the Caco-2, MDCKII-MDR1 and MDCKII-wild type cells on Day 7 (Caco-2) and Day 4 (MDCKII-MDR1 and MDCKII-wild type) after the initial plating of the cells at 2.5x10^3 cells/well in 48-well plates (Becton Dickinson, Franklin Lakes, NJ, USA). Stock solutions of 10 mM berberine or berbamine were prepared by dissolving the compounds in DMSO (berberine) or distilled water (berbamine). […] The final concentration of DMSO was 0.003% (v/v), 0.03% (v/v), 0.3% (v/v), 1% (v/v), 1.5% (v/v), and 3% (v/v) DMSO/culture medium for 0.3 μM, 3 μM, 30 μM, 100 μM, ,150 μM, and 300 μM, respectively. The final concentration of ethanol was 0.15% (v/v) ethanol/culture medium. Ketoconazole (75 µM) was used as a positive control and no treatment (medium alone) was used as a negative control for each experiment.
as §2

Sequence of P-glycoprotein (P08183 whole entry): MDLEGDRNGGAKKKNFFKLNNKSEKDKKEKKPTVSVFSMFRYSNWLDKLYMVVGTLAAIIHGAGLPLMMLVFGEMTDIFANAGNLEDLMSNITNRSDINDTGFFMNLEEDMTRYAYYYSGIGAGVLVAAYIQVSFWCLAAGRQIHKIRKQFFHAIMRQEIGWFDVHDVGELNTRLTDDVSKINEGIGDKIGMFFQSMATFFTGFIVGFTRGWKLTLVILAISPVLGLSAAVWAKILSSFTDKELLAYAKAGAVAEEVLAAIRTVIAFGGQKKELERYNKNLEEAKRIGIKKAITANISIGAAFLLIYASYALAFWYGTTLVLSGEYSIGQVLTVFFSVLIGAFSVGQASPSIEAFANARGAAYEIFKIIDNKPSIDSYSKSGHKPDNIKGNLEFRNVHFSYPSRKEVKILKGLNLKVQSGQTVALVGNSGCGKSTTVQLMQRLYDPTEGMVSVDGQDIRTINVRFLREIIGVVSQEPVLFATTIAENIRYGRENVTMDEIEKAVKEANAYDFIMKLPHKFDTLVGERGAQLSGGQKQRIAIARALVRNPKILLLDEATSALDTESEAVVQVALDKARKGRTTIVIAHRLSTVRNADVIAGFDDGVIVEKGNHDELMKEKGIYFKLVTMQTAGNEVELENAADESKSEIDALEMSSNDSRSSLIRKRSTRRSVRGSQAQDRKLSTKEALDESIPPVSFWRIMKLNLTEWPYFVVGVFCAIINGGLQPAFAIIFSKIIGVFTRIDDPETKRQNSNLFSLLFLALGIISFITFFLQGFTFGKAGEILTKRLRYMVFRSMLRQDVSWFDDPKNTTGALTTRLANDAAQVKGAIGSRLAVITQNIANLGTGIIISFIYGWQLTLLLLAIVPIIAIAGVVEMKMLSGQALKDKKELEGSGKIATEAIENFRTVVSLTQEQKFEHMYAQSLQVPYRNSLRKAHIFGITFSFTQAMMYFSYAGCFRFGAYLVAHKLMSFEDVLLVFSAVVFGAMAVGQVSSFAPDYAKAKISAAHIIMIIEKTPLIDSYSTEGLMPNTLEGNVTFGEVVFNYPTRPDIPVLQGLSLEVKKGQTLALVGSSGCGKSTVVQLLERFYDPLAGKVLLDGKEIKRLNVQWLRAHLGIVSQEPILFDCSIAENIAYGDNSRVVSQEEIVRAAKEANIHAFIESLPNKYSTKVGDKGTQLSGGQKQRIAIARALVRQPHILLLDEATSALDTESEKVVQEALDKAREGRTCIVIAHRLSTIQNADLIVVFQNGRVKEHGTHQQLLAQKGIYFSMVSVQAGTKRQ
Sequence of P-glycoprotein (MDCKII-MDR1 cells) (P08183 whole entry): as above

With `COc1ccc2cc3[n+](cc2c1OC)CCc1cc2c(cc1-3)OCO2.[Cl-]` [Berberine, Berberine chloride] the “Papp (B to A) of 3H-CsA” value (P-glycoprotein; 10 µM compound) was 1.79 ± 0.16 x 10^−6 cm/s, the “Papp (B to A) of 3H-digoxin” value (P-glycoprotein; 10 µM compound, 0.5 µM 3H-digoxin) was 2.37 ± 0.26 x 10^−6 cm/s and the “Papp (B to A) of 3H-CsA” value (P-glycoprotein; 30 µM compound) was 1.52 ± 0.14 x 10^−6 cm/s. The “Papp (B to A) of 3H-digoxin” value (P-glycoprotein; 30 µM compound, 0.5 µM 3H-digoxin) was 2.26 ± 0.29 x 10^−6 cm/s, the “Papp (B to A) of 3H-CsA” value (P-glycoprotein; 100 µM compound) was 1.60 ± 0.45 x 10^−6 cm/s and the “Papp (B to A) of 3H-digoxin” value (P-glycoprotein; 100 µM compound, 0.5 µM 3H-digoxin) was 2.93 ± 0.07 x 10^−6 cm/s. For the same compound, the “lowest concentration with significant decrease of B to A transport of 0.5 µM 3H-CsA” value (P-glycoprotein; Caco-2 cells) was 10 µM, the “effect on digoxin transport” value (P-glycoprotein; Caco-2 cells, up to 30 μM, 0.5 µM 3H-digoxin) was “no significant effects” and the MTT assay (Caco-2 cells; 0.03 µM) was “□ (%MTT reduction is not significantly decreased compared with the negative control)”. The MTT assay (Caco-2 cells; 3.0 µM) was “□ (%MTT reduction is not significantly decreased compared with the negative control)”, the MTT assay (Caco-2 cells; 100 µM) was “□ (%MTT reduction is not significantly decreased compared with the negative control)” and the MTT assay (Caco-2 cells; 150 µM) was 76.37 ± 2.13%. The “earliest time of significant increase in LDH leakage and decrease in MTT reduction” value (Caco-2 cells; 150 µM, time-response 2, 4, 6, 8 hr, data not shown) was 4 h, the MTT assay (Caco-2 cells; 300 µM) was 58.25 ± 6.37% and the MTT assay (Caco-2 cells; 300 µM, listed as berberine) was 58.25 ± 9.24%. The “increase of mean area under the curve of CsA” value [1] was 34.5%, the “Papp (B to A) of 3H-CsA” value ([2]; 10 µM compound) was 5.34 ± 1.56 x 10^−6 cm/s and the “Papp (B to A) of 3H-digoxin” value ([2]; 10 µM compound) was 1.56 ± 0.43 x 10^−6 cm/s. For the same compound, the “Papp (B to A) of 3H-CsA” value ([2]; 30 µM compound) was 5.17 ± 0.92 x 10^−6 cm/s, the “Papp (B to A) of 3H-digoxin” value ([2]; 30 µM compound) was 1.57 ± 0.81 x 10^−6 cm/s and the MTT assay (MDCKII wild-type cells; 0.03 µM) was “□ (%MTT reduction is not significantly decreased compared with the negative control)”. The MTT assay (MDCKII wild-type cells; 3.0 µM) was “□ (%MTT reduction is not significantly decreased compared with the negative control)”, the MTT assay (MDCKII wild-type cells; 100 µM) was “□ (%MTT reduction is not significantly decreased compared with the negative control)” and the MTT assay (MDCKII wild-type cells; 150 µM) was “□ (%MTT reduction is not significantly decreased compared with the negative control)”. It also gave an MTT assay (MDCKII wild-type cells; 300 µM) of 24.82 ± 15.91%.
